# Test results reported in paper PMC8296573, “Synthesis and Biological Evaluation of Fingolimod Derivatives as Antibacterial Agents” (ACS Omega, 2021).
# Like-named read-outs stand apart in the source and are kept apart here.
# What was measured:
# S. aureus ATCC 25923 [1] = experiment: Antibacterial activity, pre-exposure (planktonic cells and biofilm formation); assay type: cell-based, Staphylococcus aureus; details: for MIC / inhibition at 5 µM / inhibition at 10 µM / inhibition at 15 µM / inhibition at 25 µM: Staphylococcus aureus, ATCC25923; for inhibition at 5 µM / inhibition at 10 µM / inhibition at 15 µM / inhibition at 25 µM / Average inhibition %, biofilms viability / Average inhibition %, planktonic cells viability: pre-exposure, ± SD
# How it was run: (§1)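 Bacteria and compound were co-incubated from the start for 18 h at 37 °C, 220 rpm. Planktonic cells scored by turbidity plus resazurin reduction; washed biofilms scored by 20 μM resazurin (30, 60, 90 min for S. aureus, A. baumannii, P. aeruginosa) and ethanol-fixed crystal violet staining.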
# A. baumannii NCTC 13423 = experiment: Antibacterial activity, pre-exposure; assay type: cell-based, Acinetobacter baumannii; details: for Average inhibition %, biofilms viability / Average inhibition %, planktonic cells viability / inhibition at 10 µM / inhibition at 15 µM / inhibition at 25 µM / inhibition at 50 µM: A. baumannii NCTC 13423, pre-exposure, ± SD; for inhibition at 10 µM / inhibition at 15 µM / inhibition at 25 µM / inhibition at 50 µM / MIC: Acinetobacter baumannii, NCTC13423
# How it was run: as §1
# P. aeruginosa ATCC 9027 = experiment: Antibacterial activity, pre-exposure; assay type: cell-based, Pseudomonas aeruginosa; details: for Average inhibition %, biofilms viability / Average inhibition %, planktonic cells viability / inhibition at 50 µM / inhibition at 100 µM / inhibition at 150 µM / inhibition at 200 µM: P. aeruginosa ATCC 9027, pre-exposure, ± SD; for MIC / inhibition at 50 µM / inhibition at 100 µM / inhibition at 150 µM / inhibition at 200 µM: Pseudomonas aeruginosa; for inhibition at 50 µM / inhibition at 100 µM / inhibition at 150 µM / inhibition at 200 µM: ATCC9027
# How it was run: as §1
# S. aureus ATCC 25923 [2] = experiment: Antibacterial activity, post-exposure on preformed 18-h-old biofilms; assay type: cell-based, Staphylococcus aureus; details: ± SD; for inhibition at 25 µM / inhibition at 50 µM / inhibition at 100 µM / inhibition at 200 µM: Staphylococcus aureus; for inhibition at 25 µM: ATCC25923, 25 µM; for inhibition at 50 µM: ATCC25923, 50 µM; for inhibition at 100 µM: ATCC25923, 100 µM; for inhibition at 200 µM: ATCC25923, 200 µM
# How it was run: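 Compounds were applied to preformed 18-h biofilms after medium change and left 24 h. Read-outs: planktonic OD plus resazurin fluorescence (20 μM), biofilm metabolic activity by resazurin 30 min at 37 °C, then biomass by crystal violet absorbance at 595 nm after ethanol fixation.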
# [3] = 10 µM, read-out: Average inhibition %, biofilms biomass
# [4] = 10 µM, read-out: Average inhibition %, planktonic cells turbidity
# [5] = 15 µM, read-out: Average inhibition %, biofilms biomass
# [6] = 15 µM, read-out: Average inhibition %, planktonic cells turbidity
# [7] = 25 µM, read-out: Average inhibition %, biofilms biomass
# [8] = 25 µM, read-out: Average inhibition %, planktonic cells turbidity
# [9] = 50 µM, read-out: Average inhibition %, biofilms biomass
# [10] = 50 µM, read-out: Average inhibition %, planktonic cells turbidity
# [11] = read-out: Average inhibition %, biofilms biomass
# [12] = read-out: Average inhibition %, planktonic cells turbidity
compound,measurement,setting,value
"CCCCCCCCCCc1ccc(CCC(N)(CO)CO)nc1 [Compound 62, 2-Amino-2-[2-(5-decylpyridin-2-yl)ethyl]propane-1,3-diol]",MIC,"S. aureus ATCC 25923 [1]; lowest concentration with no visible growth (>90% inhibition of turbidity and viability of planktonic cells), 18 h, read-out: MIC S. aureus ATCC 25923",15 µM
same,inhibition at 5 µM,"S. aureus ATCC 25923 [1]; 5 µM, read-out: Average inhibition %, biofilms biomass",34.5 ± 10.1%
same,inhibition at 5 µM,"S. aureus ATCC 25923 [1]; 5 µM, read-out: Average inhibition %, planktonic cells turbidity",9.5 ± 10.5%
same,inhibition at 10 µM,S. aureus ATCC 25923 [1]; [3],46 ± 8%
same,inhibition at 10 µM,S. aureus ATCC 25923 [1]; [4],15.6 ± 7.5%
same,inhibition at 15 µM,S. aureus ATCC 25923 [1]; [5],91.8 ± 5.5%
same,inhibition at 15 µM,S. aureus ATCC 25923 [1]; [6],85.8 ± 12.4%
same,inhibition at 25 µM,S. aureus ATCC 25923 [1]; [7],94.8 ± 1.6%
same,inhibition at 25 µM,S. aureus ATCC 25923 [1]; [8],99.1 ± 0.7%
same,MIC,S. aureus ATCC 25923 [1]; read-out: MIC (S. aureus),15 µM
same,MIC S. aureus ATCC 25923,"S. aureus ATCC 25923 [1]; lowest concentration with no visible growth (>90% inhibition of turbidity and viability of planktonic cells), 18 h",same MIC as fingolimod
same,"Average inhibition %, biofilms viability",S. aureus ATCC 25923 [1]; 5 µM,23.3 ± 7.1%
same,"Average inhibition %, planktonic cells viability",S. aureus ATCC 25923 [1]; 5 µM,0 ± 0%
same,"Average inhibition %, biofilms viability",S. aureus ATCC 25923 [1]; 10 µM,35.7 ± 5.8%
same,"Average inhibition %, planktonic cells viability",S. aureus ATCC 25923 [1]; 10 µM,0 ± 0%
same,"Average inhibition %, biofilms viability",S. aureus ATCC 25923 [1]; 15 µM,95.2 ± 3.8%
same,"Average inhibition %, planktonic cells viability",S. aureus ATCC 25923 [1]; 15 µM,92.4 ± 6.5%
same,"Average inhibition %, biofilms viability",S. aureus ATCC 25923 [1]; 25 µM,99.6 ± 0.2%
same,"Average inhibition %, planktonic cells viability",S. aureus ATCC 25923 [1]; 25 µM,100 ± 0.1%
same,"Average inhibition %, biofilms viability",A. baumannii NCTC 13423; 10 µM,40 ± 33.9%
same,"Average inhibition %, planktonic cells viability",A. baumannii NCTC 13423; 10 µM,37.7 ± 25.3%
same,"Average inhibition %, biofilms viability",A. baumannii NCTC 13423; 15 µM,100.5 ± 1%
same,"Average inhibition %, planktonic cells viability",A. baumannii NCTC 13423; 15 µM,99.8 ± 0.4%
same,"Average inhibition %, biofilms viability",A. baumannii NCTC 13423; 25 µM,101.2 ± 1.3%
same,"Average inhibition %, planktonic cells viability",A. baumannii NCTC 13423; 25 µM,99.7 ± 0.3%
same,"Average inhibition %, biofilms viability",A. baumannii NCTC 13423; 50 µM,101.3 ± 1.2%
same,"Average inhibition %, planktonic cells viability",A. baumannii NCTC 13423; 50 µM,99.7 ± 0.2%
same,inhibition at 10 µM,A. baumannii NCTC 13423; [3],21.3 ± 18.9%
same,inhibition at 10 µM,A. baumannii NCTC 13423; [4],46 ± 39.6%
same,inhibition at 15 µM,A. baumannii NCTC 13423; [5],85.4 ± 2%
same,inhibition at 15 µM,A. baumannii NCTC 13423; [6],99.3 ± 0.9%
same,inhibition at 25 µM,A. baumannii NCTC 13423; [7],83.1 ± 3%
same,inhibition at 25 µM,A. baumannii NCTC 13423; [8],99.2 ± 0.9%
same,inhibition at 50 µM,A. baumannii NCTC 13423; [9],79 ± 9.4%
same,inhibition at 50 µM,A. baumannii NCTC 13423; [10],98.8 ± 0.9%
same,MIC,"A. baumannii NCTC 13423; pre-exposure, Inactive = no activity up to 50 μM, > = some inhibition but no MIC reached, read-out: MIC A. baumannii NCTC 13423",15 µM
same,MIC,"A. baumannii NCTC 13423; supplementary molecular formula strings sheet, read-out: MIC (A. baumannii)",15 µM
same,"Average inhibition %, biofilms viability",P. aeruginosa ATCC 9027; 50 µM,13.5 ± 11.7%
same,"Average inhibition %, planktonic cells viability",P. aeruginosa ATCC 9027; 50 µM,18.7 ± 18.1%
same,"Average inhibition %, biofilms viability",P. aeruginosa ATCC 9027; 100 µM,13.6 ± 3.2%
same,"Average inhibition %, planktonic cells viability",P. aeruginosa ATCC 9027; 100 µM,39.6 ± 45.8%
same,"Average inhibition %, biofilms viability",P. aeruginosa ATCC 9027; 150 µM,27.7 ± 14.8%
same,"Average inhibition %, planktonic cells viability",P. aeruginosa ATCC 9027; 150 µM,76.3 ± 19.2%
same,"Average inhibition %, biofilms viability",P. aeruginosa ATCC 9027; 200 µM,61.8 ± 34.8%
same,"Average inhibition %, planktonic cells viability",P. aeruginosa ATCC 9027; 200 µM,94.7 ± 4.6%
same,MIC,"P. aeruginosa ATCC 9027; ATCC9027, pre-exposure, Inactive = no activity up to 200 μM, > = some inhibition but no MIC reached, read-out: MIC P. aeruginosa ATCC 9027",> 200 µM
same,MIC,"P. aeruginosa ATCC 9027; ATCC9027, supplementary molecular formula strings sheet, read-out: MIC (P. aeruginosa)",> 200 µM
same,inhibition at 50 µM,P. aeruginosa ATCC 9027; [9],19.7 ± 9.7%
same,inhibition at 50 µM,P. aeruginosa ATCC 9027; [10],35.6 ± 9.3%
same,inhibition at 100 µM,"P. aeruginosa ATCC 9027; 100 µM, read-out: Average inhibition %, biofilms biomass",18.6 ± 19.2%
same,inhibition at 100 µM,"P. aeruginosa ATCC 9027; 100 µM, read-out: Average inhibition %, planktonic cells turbidity",58 ± 23%
same,inhibition at 150 µM,"P. aeruginosa ATCC 9027; 150 µM, read-out: Average inhibition %, biofilms biomass",21 ± 3.9%
same,inhibition at 150 µM,"P. aeruginosa ATCC 9027; 150 µM, read-out: Average inhibition %, planktonic cells turbidity",84.5 ± 4.1%
same,inhibition at 200 µM,"P. aeruginosa ATCC 9027; 200 µM, read-out: Average inhibition %, biofilms biomass",38.5 ± 47.1%
same,inhibition at 200 µM,"P. aeruginosa ATCC 9027; 200 µM, read-out: Average inhibition %, planktonic cells turbidity",92.5 ± 5%
same,"Average inhibition %, biofilms viability",S. aureus ATCC 25923 [2]; 25 µM,12.6 ± 12.7%
same,"Average inhibition %, planktonic cells viability",S. aureus ATCC 25923 [2]; 25 µM,0 ± 0%
same,"Average inhibition %, biofilms viability",S. aureus ATCC 25923 [2]; 50 µM,37.2 ± 4.9%
same,"Average inhibition %, planktonic cells viability",S. aureus ATCC 25923 [2]; 50 µM,0 ± 0%
same,"Average inhibition %, biofilms viability",S. aureus ATCC 25923 [2]; 100 µM,56.4 ± 12%
same,"Average inhibition %, planktonic cells viability",S. aureus ATCC 25923 [2]; 100 µM,55.8 ± 42.1%
same,"Average inhibition %, biofilms viability",S. aureus ATCC 25923 [2]; 200 µM,99.3 ± 0.3%
same,"Average inhibition %, planktonic cells viability",S. aureus ATCC 25923 [2]; 200 µM,100.1 ± 0.1%
same,inhibition at 25 µM,S. aureus ATCC 25923 [2]; [11],43.1 ± 11%
same,inhibition at 25 µM,S. aureus ATCC 25923 [2]; [12],15.7 ± 12.5%
same,inhibition at 50 µM,S. aureus ATCC 25923 [2]; [11],63.9 ± 10.9%
same,inhibition at 50 µM,S. aureus ATCC 25923 [2]; [12],16.7 ± 24.2%
same,inhibition at 100 µM,S. aureus ATCC 25923 [2]; [11],76.2 ± 5.6%
same,inhibition at 100 µM,S. aureus ATCC 25923 [2]; [12],57.6 ± 29.3%
same,inhibition at 200 µM,S. aureus ATCC 25923 [2]; [11],80.8 ± 3.8%
same,inhibition at 200 µM,S. aureus ATCC 25923 [2]; [12],89.9 ± 1.7%
